According to US7129271B2, “Compounds for pest control and methods for their use” (The United States of America as represented by the …, priority 2000, dated 2006):
In brackets after ≈: the same amount, converted by molar mass. Where two headings read alike, the source gives them in different places.

Experiments:
[1] = system: I. scapularis nymphs, X. cheopis adults, and Ae. aegypti adults; assay: Initial screening against all three arthropods (Example 9); format: in vivo; settings: 24 hours exposure; ticks, fleas, mosquitoes
Experimental: Valencene-13-aldehyde was prepared by oxidation of valencene with SeO2. […] Commercial samples of nootkatone for comparison were obtained from Bedoukian Research, Inc., Danbury, Conn. (semi-synthetic crystalline) and Frutarom, Inc. N.J. (from grapefruit oil). […] The compounds identified by an asterisk—nos.

Aedes aegypti adults = assay: Residual activity, treated bottles aged before loading (Example 9); format: in vivo
Experimental: (§1) Mosquit Bioassay. Adult mosquitoes were tested using the bottle bioassay method of Brogden, W. G., and McAllister, J. C., J. Am. Mosq. Control Assoc. 14:159–64 (1998), with minor modifications. Natural product extracts were two-fold serially diluted for a total of 8 concentrations ranging from 0.002% to 0.25% in 1.5 ml of acetone. Individual dilutions were added to 250 ml Wheaton glass bottles and capped. Bottles were manipulated to evenly coat all inner surfaces. The caps were removed and bottles were allowed to air-dry overnight. Once bottles were completely dry, 10–50 adult mosquitoes were aspirated into the bottles. Mosquitoes were held in the bottles for 24 h at 23° C. and 85% RH. Morbidity and mortality were recorded at 15, 30, 45, and 60 min and 24 hour intervals. One bottle for each replicate was treated with acetone only and served as a control. The dose-mortality data was evaluated with probit analysis, using the LdP Line software, to determine LC50 and LC90 values.

[2] = system: ticks, fleas, and mosquitoes; assay: Residual activity, overall statements for ticks, fleas and mosquitoes (Example 9); settings: 1 to 4 weeks after treatment
X. cheopis adults = assay: Flea bioassay, treated vials (Example 9); format: in vivo; settings: 24 h exposure, 95% CI in parentheses
Experimental: Flea Colonies. Adult X. cheopis fleas (1–3 wk old) were obtained from a colony founded more than eight years ago using adults received from Tom Schwan, Rocky Mountain Laboratories, Hamilton, Mont. The area from which these original adult fleas were obtained, and the resulting colony, have no known histories of pesticide exposure.
(§2) Tick and Flea Bioassays. Concentrations of the compounds were prepared by 2-fold serial dilutions of a 0.5% (wt:vol) solution of the extracts in acetone. […] A control treated with acetone only was run with each series. Tick and flea susceptibility was evaluated using a modified disposable pipette method. See, Barnard, D. R., et al., J. Econ. Entomol.
(§3) The inner surface of 2-dram friction cap vials were treated with the compound/acetone solution, or acetone only as a control, and left to air-dry overnight. Three to 4 holes were made in the plastic cap to allow for air exchange. Nymphal ticks and adult fleas were then placed directly into the vials using forceps. Vials containing ticks or fleas were placed in desiccators for 24 h at 21° C. and 90% RH. Morbidity and mortality was recorded at 1, 2, 4, 8, and 24 h after initial exposure.

[3] = system: nymphal Ixodes scapularis; assay: Treated-vial biocidal screening, 2% acetone solutions (Example 2); format: in vivo; settings: for I. scapularis nymphs (24 h), number killed/number tested: 2% acetone solution (wt./vol.) dried in vials; for I. scapularis nymphs (72 h), number killed/number tested: treated vials sat 72 h, arthropods added for final 24 h
Experimental: (§4) Samples of the compounds listed below Were obtained from Dr. Karchesy, a co-inventor, and screened for biocidal activities against nymphal Ixodes scapularis. In this example, 2% acetone solutions (wt./vol.) of the compounds were applied to inner surfaces of 2-dram friction cap vials. Vials and caps were treated then allowed to dry for a minimum of 4 hours before placing 10 nymphs in each container. These same vials were used to challenge additional nymphs and adult I. scapularis ticks and adult Xenopsylla cheopis fleas through five weeks to observe any possible residual activity.
(§5) Numbers in parentheses refer to length of treatment in terms of hours (h) or weeks (wk). Data is presented in terms of number killed/number tested. For test periods longer than 24 hours, the treated vials were allowed to sit for the stated period after drying (72 h, 4 wk, or 5 wk) and each group of arthropods was added to the vials for the final 24 h of the test period.

Ae. aegypti adults = assay: Mosquito bottle bioassay (Example 9); format: in vivo; settings: 24 h exposure, 95% CI in parentheses
Experimental: Mosquito Colonies. Aedes aegypti adult mosquitoes were obtained from an existing colony at the Centers for Disease Control and Prevention (CDC), Division of Vector-Borne Infectious Diseases (DVBID), Fort Collins, Colo. This colony has been maintained for over fifteen years with no known history of exposure to pesticides. Mosquitoes were reared at 28° C., 85% RH, and a 14:10 h (light:dark) cycle. Larvae were grown in de-ionized water and fed ground liver powder solution ad libitum. Fourth instars were removed and placed in emergence cages, and adults were fed a 2% sucrose solution until assayed. Adults were exposed to test products at 4–7 d after emergence.
as §1

Ixodes scapularis nymphs = assay: Residual activity, treated vials aged before loading (Example 9); format: in vivo
Experimental: as §2, with “acetone. The approximate toxicity of individual compounds was determined with a total of 8 doses ranging from 0.002% to 0.25%.” for “acetone.”, “Entomol. 74:466–69 (1981).” for “Entomol.”
as §3, with “Groups of 10 nymphal I. scapularis and X. cheopis fleas were used in all tests, resulting in a total of 5,240 nymphs and 4,860 fleas exposed to the compounds. The” for “The”

[4] = system: adult Xenopsylla cheopis fleas; assay: Treated-vial biocidal screening, residual challenge (Example 2); format: in vivo; settings: treated vials sat 5 wk; arthropods added for final 24 h
Experimental: as §4, §5

[5] = system: adult I. scapularis ticks; assay: as above; format: in vivo, Ixodes scapularis; settings: treated vials sat 4 wk; arthropods added for final 24 h
Experimental: as §4, §5

I. scapularis nymphs = assay: Tick bioassay, modified disposable pipette method, treated vials (Example 9); format: in vivo, Ixodes scapularis
Experimental: Tick Colonies. […] There was no known pesticide used at this location. Ticks were maintained at 21° C., 90% RH, and received a 16:8 h (light:dark) cycle as described in […]. Med. […] Tick and Flea Bioassays. […] A control treated with acetone only was run with each series. Tick and flea susceptibility was evaluated using a modified disposable pipette method. See, Barnard, D. R., et al., J. Econ. […] Three to 4 holes were made in the plastic cap to allow for air exchange. Nymphal ticks and adult fleas were then placed directly into the vials using forceps. Vials containing ticks or fleas were placed in desiccators for 24 h at 21° C. and 90% RH. […] For each time point, if ticks were incapable of movement, maintaining normal posture, leg coordination, ability to right themselves, or any signs of life, they were considered moribund or dead.

[6] = system: ticks, fleas, formicids and termites; assay: Persistence of biocidal activity, vials treated with 2% solutions (Example 5); format: in vivo
Experimental: as §4
Persistence of biocidal activity was determined for nootkatone and valencene-11,12-epoxide by using the vials as treated with the 2% solutions of Example 2. […] At 11 weeks, the biocidal activity began to dissipate below the 100% mortality level.

[7] = system: Xenopsylla cheopis adults; assay: Residual activity, treated vials aged before loading (Example 9); format: in vivo
Experimental: as §2, with “acetone. The approximate toxicity of individual compounds was determined with a total of 8 doses ranging from 0.002% to 0.25%.” for “acetone.”, “Entomol. 74:466–69 (1981).” for “Entomol.”
as §3, with “Groups of 10 nymphal I. scapularis and X. cheopis fleas were used in all tests, resulting in a total of 5,240 nymphs and 4,860 fleas exposed to the compounds. The” for “The”

nymphal I. scapularis = assay: Baseline dose-mortality, method of Maupin and Piesman 1994 (Example 7); format: in vivo; settings: nymphal ticks
Description: Baseline dose-mortalities were established for nymphal I. scapularis for nootkatone and valencene-11,12-epoxide using the method described in Maupin, G. O., and Piesman, J., J. Med. Entomol., 31:319–21 (1994).
A comparison of relative potency was made with published data for carbaryl and permethrin (Maupin and Piesman, 1994) and Alaska yellow cedar essential oil (Panella et al., J. Med. Entomol. 34:340–45 (1997) is presented in Table 6.

Culex p. pipiens = assay: Mosquito susceptibility, serial dilutions (Example 8); settings: in vivo
[8] = residual activity at 1 week after treatment
[9] = 24 h exposure, 95% CI in parentheses
[10] = residual activity at 2 weeks after treatment
[11] = residual activity at 4 weeks after treatment
[12] = Aedes aegypti, 24 h, read-out: LC50

Compound	LC50 (Aedes aegypti adults; [8])	LC90 (Aedes aegypti adults; [8])	residual activity (in words) [2]	LC50 (X. cheopis adults)	I. scapularis nymphs (24 h), number killed/number tested [3]	I. scapularis nymphs (72 h), number killed/number tested [3]	LC50 (Ixodes scapularis nymphs; [8])	LC90 (Ixodes scapularis nymphs; [8])	X. cheopis adults (5 wk), number killed/number tested [4]	I. scapularis adults (4 wk), number killed/number tested [5]	LC50 (I. scapularis nymphs; [9])	LC50 (Aedes aegypti adults; [10])	LC90 (Aedes aegypti adults; [10])	LC50 (Aedes aegypti adults; [11])	LC90 (Aedes aegypti adults; [11])	LC50 (Ae. aegypti adults; [12]) [µg/mL]	LC50 (Ixodes scapularis nymphs; [10])	LC90 (Ixodes scapularis nymphs; [10])	LC50 (Ixodes scapularis nymphs; [11])	LC90 (Ixodes scapularis nymphs; [11])	also measured
CC1=CCC2C(C1)C2(C)C (stereo not drawn) [Compound 1, 3-Carene]																					pesticidal activity in initial screening [1]: no pesticidal activity
C=C(C)C1CC=C2C=CCC(C)C2(C)C1 (stereo not drawn) [Compound 6, Nootkatene]	0.132 (0.096–0.236) percent concentration, wt:vol	0.659 (0.329–2.855) percent concentration, wt:vol	nearly inactive	0.017 (0.012–0.024) percent concentration, wt:vol	10/10	4/5	2.062 percent concentration, wt:vol	524.656 percent concentration, wt:vol	0/5	0/5	0.011 (0.0086–0.014) percent concentration, wt:vol										residual activity (in words) ([2]; listed as compound 6): did not demonstrate any residual activity after one week; LC90 (X. cheopis adults): 0.075 (0.049–0.151) percent concentration, wt:vol; LC50 (X. cheopis adults; listed as compound 6): 0.017 percent concentration, wt:vol; LC50 (Ae. aegypti adults): 0.027 percent concentration, wt:vol; LC90 (Ae. aegypti adults): 0.059 percent concentration, wt:vol; LC90 (I. scapularis nymphs; [9]): 0.06 (0.043–0.098) percent concentration, wt:vol; LC50 (I. scapularis nymphs; 24 h exposure, 95% CI in parentheses, listed as compound 6): 0.011 percent concentration, wt:vol
C=C(C)[C@@H]1CCC2=CC(=O)C[C@@H](C)[C@]2(C)C1 [Compound 7, Nootkatone]	0.02 (0.014–0.029) percent concentration, wt:vol	0.054 (0.041–0.105) percent concentration, wt:vol	considerable biological activity	0.0083 (0.0064–0.01) percent concentration, wt:vol	10/10	5/5	0.023 percent concentration, wt:vol	0.13 percent concentration, wt:vol	5/5	5/5	0.0029 (0.0025–0.0034) percent concentration, wt:vol	0.019 (0.016–0.022) percent concentration, wt:vol	0.046 (0.037–0.061) percent concentration, wt:vol	0.013 (0.011–0.015) percent concentration, wt:vol	0.038 (0.031–0.051) percent concentration, wt:vol	57 (≈ 261 µM)	0.026 (0.018–0.039) percent concentration, wt:vol	0.168 (0.094–0.448) percent concentration, wt:vol	0.026 (0.018–0.039) percent concentration, wt:vol	0.164 (0.093–0.429) percent concentration, wt:vol	mortality ([6]; 24 hour exposure at each test through 10 weeks, each group of arthropods): 100%; time at which biocidal activity began to dissipate below the 100% mortality level ([6]; vials treated with 2% solutions): 11 weeks; LC50 [7, 8]: 0.016 (0.012–0.02) percent concentration, wt:vol; LC90 [7, 8]: 0.05 (0.036–0.081) percent concentration, wt:vol; LC50 [7, 10]: 0.031 percent concentration, wt:vol; LC90 [7, 10]: 0.134 percent concentration, wt:vol; LC50 [7, 11]: 0.031 percent concentration, wt:vol; more effective than essential oil of Alaska yellow cedar (nymphal I. scapularis): about 98%; potency relative to essential oil of Alaska yellow cedar (nymphal I. scapularis): approximately 50 times
C=C(CO)C1CCC2=CCC[C@@H](C)[C@]2(C)C1 (stereo partly drawn) [Compound 10, 13-hydroxy-valencene]	0.024 (0.02–0.028) percent concentration, wt:vol	0.058 (0.046–0.081) percent concentration, wt:vol	considerable biological activity				0.0071 (0.0055–0.0091) percent concentration, wt:vol	0.019 (0.014–0.031) percent concentration, wt:vol				0.014 (0.012–0.016) percent concentration, wt:vol	0.021 (0.019–0.027) percent concentration, wt:vol	0.013 (0.0089–0.017) percent concentration, wt:vol	0.04 (0.029–0.074) percent concentration, wt:vol	34 (≈ 154 µM)	0.0083 (0.0057–0.011) percent concentration, wt:vol	0.044 (0.029–0.081) percent concentration, wt:vol	0.031 percent concentration, wt:vol	0.303 percent concentration, wt:vol	LC50 (X. cheopis adults; Xenopsylla cheopis, 24 h, read-out: LC50): 83 µg/mL (≈ 377 µM); LC90 (X. cheopis adults; Xenopsylla cheopis, 24 h, read-out: LC90): 210 µg/mL (≈ 953 µM); EC90 (Ae. aegypti adults; Aedes aegypti, 24 h, read-out: LC90 (the source's name)): 140 µg/mL (≈ 635 µM); LC50 [7, 8]: 0.03 (0.022–0.041) percent concentration, wt:vol; LC90 [7, 8]: 0.113 (0.074–0.226) percent concentration, wt:vol; LC50 [7, 10]: 0.039 (0.029–0.053) percent concentration, wt:vol; LC90 [7, 10]: 0.131 (0.087–0.268) percent concentration, wt:vol; LC50 (I. scapularis nymphs; Ixodes scapularis, 24 h): 51 µg/mL (≈ 231 µM); LC90 (I. scapularis nymphs; Ixodes scapularis, 24 h, 24 h exposure, 95% CI in parentheses, read-out: LC90): 160 µg/mL (≈ 726 µM); C. pipiens LD50 (Culex p. pipiens): < 4.5×10^−3
